In patent publication US20260158056A1, “USE OF LOW MOLECULAR WEIGHT HYALURONIC ACID FOR THE TREATMENT OF LUNG MUCOSAL INFLAMMATION” (INSTITUT NATIONAL DE LA SANTÉ ET DE LA RECHERCHE MÉDICALE, priority 2021, published 2026):

System: IL-8 secreted by F508del/F508del CF human airway epithelial cells
Assay: IL-8 ELISA, CF airway epithelial cells cultured at the air-liquid interface (ALI), treatment during regeneration and differentiation
Assay type: cell-based
Experimental: FIG. 1: Measurement by ELISA assay of the pro-inflammatory chemokine IL-8 secreted by F508del/F508del CF human airway epithelial cells cultured at the air-liquid interface (ALI). Airway epithelial cells were seeded in bi-compartmental chambers and cultured in liquid-liquid condition until confluence was reached. At confluence, culture medium from the upper chamber was removed to create an air-liquid interface (ALI) that will favor epithelial cell differentiation. From the ALI creation, the different treatments (15-45 kDa sodium-hyaluronic acid (HA-Na 15-45 kDa) (ARD—Pomacle—France—as prepared according to WO2004050187), 15-30 kDa sodium-hyaluronic acid (HA-Na 15-30 kDa) (Sigma Aldrich) or 30-50 kDa sodium-hyaluronic acid (HA-Na 30-50 kDa) (Sigma Aldrich) were added at 1 mg/mL to the culture medium in the basal chamber. The culture medium was renewed three times a week. At ALI day 15, the culture medium was replaced by fresh medium without any treatment. After a 4 h-period, this culture medium was collected and the IL-8 content was determined by ELISA assay. n=5 different F508del/F508del CF patients. p<0.001 (***); p<0.01 (**); p<0.05 (*). ns: non-significant.
FIG. 4: Measurement by ELISA assay of the pro-inflammatory chemokine IL-8 secreted by F508del/F508del CF human airway epithelial cells cultured at the air-liquid interface (ALI). Airway epithelial cells were seeded in bi-compartmental chambers and cultured in liquid-liquid condition until confluence was reached. At confluence, culture medium from the upper chamber was removed to create an air-liquid interface (ALI) that will favor epithelial cell differentiation. From the ALI creation, the different treatments (15-45 kDa sodium-hyaluronic acid (HA-Na 15-45 kDa) (ARD—Pomacle—France—as prepared according to WO2004050187), 15-45 kDa calcium-hyaluronic acid (HA-Ca 15-45 kDa; ARD), or 15-45 kDa potassium-hyaluronic acid (HA-K 15-45 kDa; ARD) were added at 1 mg/mL to the culture medium in the basal chamber. The culture medium was renewed three times a week. At ALI day 15, the culture medium was replaced by fresh medium without any treatment. After a 4 h-period, this culture medium was collected and the IL-8 content was determined by ELISA assay. n=4 different F508del/F508del CF patients. p<0.001 (***); p<0.01 (**); p<0.05 (*). ns: Non-significant.
FIG. 7: Measurement by ELISA assay of the pro-inflammatory chemokine IL-8 secreted by F508del/F508del CF human airway epithelial cells cultured at the air-liquid interface (ALI). Airway epithelial cells were seeded in bi-compartmental chambers and cultured in liquid-liquid condition until confluence was reached. At confluence, culture medium from the upper chamber was removed to create an air-liquid interface (ALI) that will favor epithelial cell differentiation. From the ALI creation, 15-45 kDa sodium-hyaluronic acid (HA-Na 15-45 kDa) (ARD—Pomacle—France—as prepared according to WO2004050187) was added at 0.1 mg/mL, 0.5 mg/mL, 1 mg/mL and 2 mg/mL to the culture medium in the basal chamber. The culture medium was renewed three times a week. At ALI day 15, the culture medium was replaced by fresh medium without any treatment. After a 4 h-period, this culture medium was collected and the IL-8 content was determined by ELISA assay. n=3 different F508del/F508del CF patients. p<0.001 (***); p<0.01 (**); p<0.05 (*). ns: non-significant.

[1] = FIG. 1, 1 mg/mL from ALI creation, ALI day 15, vs control condition, n=5 CF patients
[2] = FIG. 4, 1 mg/mL from ALI creation, ALI day 15, vs control condition, n=4 CF patients

Row | Substance | decrease in IL-8 secretion [1] [%] | decrease in IL-8 secretion [2] [%] | decrease in IL-8 secretion (FIG. 7, 0.1 mg/mL, ALI day 15, n=3 CF patients) | decrease in IL-8 secretion (FIG. 7, 0.5 mg/mL, ALI day 15, n=3 CF patients) [%] | decrease in IL-8 secretion (FIG. 7, 1 mg/mL, ALI day 15, n=3 CF patients) [%] | decrease in IL-8 secretion (FIG. 7, 2 mg/mL, ALI day 15, n=3 CF patients) [%]
1 | 15-30 kDa sodium-hyaluronic acid [HA-Na 15-30 kDa] | 57 | – | – | – | – | –
2 | 30-50 kDa sodium-hyaluronic acid [HA-Na 30-50 kDa] | 67.2 | – | – | – | – | –
3 | 15-45 kDa calcium-hyaluronic acid [HA-Ca 15-45 kDa] | – | 59.25 | – | – | – | –
4 | 15-45 kDa sodium-hyaluronic acid [HA-Na 15-45 kDa] | 52 | 55.5 | does not have anymore effect | 47.3 | 62 | 65
